Each block holds one molecule with its values, some of them ahead of it.
Experiments:
Format in all cases: cell-based
[1] = system: β3 integrin; assay: Cell surface β3 integrin expression by flow cytometry after overnight drug incubation; details: 5 μM
Method: (§1) FIGS. 13A-13P illustrate B-raf^V600E inhibits FAK to promote integrin surface expression. FIG. 13A: shRNAs 841, 102 and NC were induced in WM858 cells by IPTG for 5 days (n=4) followed by RNA quantitation. Genes regulated at 0 vs. 0.05 mM IPTG in 841 and 102 but not NC cells are shown. These were: ITGB3 (orange), FAK (blue). Light orange, light blue: up- or down-regulation, respectively, by either 841 or 102 shRNA. FIG. 13B: WM858 cells were transfected with FAK or EGFP cDNA. Regulated genes, FAK over EGFP cells, are shown in orange (up) or blue (down) (n=4). FIG. 13C: Flow cytometry of NC, 841 and 102 cells (un-induced vs. 0.05 mM IPTG for 5 days). FIG. 13D: Integrin cell surface mean intensities; mean.+−.s.d.; n=3; *, p<0.05; p values, Student's t-test; ns, not significant. FIG. 13E: Visualization of focal adhesions by paxillin staining on micropatterned fibronectin disks. FIGS. 13F and 13G: Proliferation speed in the absence (FIG. 13F) or presence (FIG. 13G) of FAK shRNAs; mean.+−.s.d.; n=8; *, p<0.05; p values, Student's t-test; ns, not significant. FIGS. 13H and 13I: Scratch wound healing in IPTG-induced cells; representative experiment (n=3). FIGS. 13J and 13K: Effect of IPTG-induced FAK knock-down on total (t) and phospho (p)-ERK; mean.+−.s.d.; n=4; *, p<0.05; p values, Student's t-test. FIG. 13L: Cell surface β1 and β3 integrin expression (flow cytometry) in B-raf^V600E and wild-type cells after overnight drug incubation; % expression relative to DMSO is shown. FIGS. 13M-13O: FAK/ERK levels in NHM and WM858 after overnight drug incubation (FIG. 13M); quantification of FAK (FIG. 13N) and ERK phosphorylation (FIG. 13O); mean.+−.s.d.; n=4; *, p<0.05; p values, Student's t-test. FIG. 13P: ERK activity in NC, 841 and 102 cells (0.05 mM IPTG for 5 days) after overnight drug incubation.
Isopropyl β-D-1-thiogalactopyranoside (IPTG), 4′,6-Diamidino-2-phenylindole dihydrochloridemitomycin (DAPI), blebbistatin and PF-573228 were purchased from Sigma-Aldrich. Dabrafenib (GSK2118436) was purchased from Selleckchem. FAK antibody (06-543) was from EMD MILLIPORE®. FAK pY397 (44624G) antibody was from Life Technologies. Total ERK (9102) and phospho-ERK (4370) antibodies were from Cell Signaling. Paxillin (610051), ITGB3 (555754), ITGB1 (555443) and mouse IgG1 kappa (555749) antibodies were from BD Transduction Labs. Drugs were used at 5 μM final concentration. EGFP control cDNA was from (Lonza). […]
(§2) PYK2, a FAK-like tyrosine kinase, could not be detected in WM858 cells, irrespective of endogenous FAK levels. WM858 cells carrying control (NC) or FAK-specific shRNAs (841 and 102) were then exposed to IPTG for 5 days, and changes in adhesion gene expression were subsequently quantified by PCR. […]

[2] = system: β1 integrin; assay: Cell surface β1 integrin expression by flow cytometry after overnight drug incubation; details: 5 μM
Method: as §1
Isopropyl β-D-1-thiogalactopyranoside (IPTG), 4′,6-Diamidino-2-phenylindole dihydrochloridemitomycin (DAPI), blebbistatin and PF-573228 were purchased from Sigma-Aldrich. Dabrafenib (GSK2118436) was purchased from Selleckchem. FAK antibody (06-543) was from EMD MILLIPORE®. FAK pY397 (44624G) antibody was from Life Technologies. Total ERK (9102) and phospho-ERK (4370) antibodies were from Cell Signaling. Paxillin (610051), ITGB3 (555754), ITGB1 (555443) and mouse IgG1 kappa (555749) antibodies were from BD Transduction Labs. Drugs were used at 5 μM final concentration. EGFP control cDNA was from (Lonza). FAK cDNA was obtained from A. Huttenlocher, Addgene plasmid number 35039 (Chan et al., J. Biol. Chem., 285:11418-26 (2010)).
PYK2, a FAK-like tyrosine kinase, could not be detected in WM858 cells, irrespective of endogenous FAK levels. WM858 cells carrying control (NC) or FAK-specific shRNAs (841 and 102) were then exposed to IPTG for 5 days, and changes in adhesion gene expression were subsequently quantified by PCR. […] Moreover, Dabrafenib-induced blockage of ERK activity could be partially reversed by a complete FAK knock-down in 102 cells (FIG. 13P).

[3] = system: ERK; assay: ERK activity (phospho-ERK) by Western blotting after overnight drug incubation; details: WM858 melanoma cells, 5 μM
Method: (§3) FIGS. 13A-13P illustrate B-raf^V600E inhibits FAK to promote integrin surface expression. FIG. 13A: shRNAs 841, 102 and NC were induced in WM858 cells by IPTG for 5 days (n=4) followed by RNA quantitation. Genes regulated at 0 vs. 0.05 mM IPTG in 841 and 102 but not NC cells are shown. These were: ITGB3 (orange), FAK (blue). Light orange, light blue: up- or down-regulation, respectively, by either 841 or 102 shRNA. FIG. 13B: WM858 cells were transfected with FAK or EGFP cDNA. Regulated genes, FAK over EGFP cells, are shown in orange (up) or blue (down) (n=4). FIG. 13C: Flow cytometry of NC, 841 and 102 cells (un-induced vs. 0.05 mM IPTG for 5 days). FIG. 13D: Integrin cell surface mean intensities; mean.+−.s.d.; n=3; *, p<0.05; p values, Student's t-test; ns, not significant. FIG. 13E: Visualization of focal adhesions by paxillin staining on micropatterned fibronectin disks. […] FIGS. 13M-13O: FAK/ERK levels in NHM and WM858 after overnight drug incubation (FIG. 13M); quantification of FAK (FIG. 13N) and ERK phosphorylation (FIG. 13O); mean.+−.s.d.; n=4; *, p<0.05; p values, Student's t-test. […]
as §2

[4] = target: T1, FAK (Homo sapiens, UniProt Q05397); assay: FAK Y397 auto-phosphorylation by Western blotting after overnight drug incubation; details: melanoma cells, 5 μM
T1 construct: FAK/ERK levels in NHM and WM858 after overnight drug incubation; endogenous in cells; host or cells: WM858 melanoma cells and NHM
Method: as §3, §2

T1 sequence (Q05397 whole entry): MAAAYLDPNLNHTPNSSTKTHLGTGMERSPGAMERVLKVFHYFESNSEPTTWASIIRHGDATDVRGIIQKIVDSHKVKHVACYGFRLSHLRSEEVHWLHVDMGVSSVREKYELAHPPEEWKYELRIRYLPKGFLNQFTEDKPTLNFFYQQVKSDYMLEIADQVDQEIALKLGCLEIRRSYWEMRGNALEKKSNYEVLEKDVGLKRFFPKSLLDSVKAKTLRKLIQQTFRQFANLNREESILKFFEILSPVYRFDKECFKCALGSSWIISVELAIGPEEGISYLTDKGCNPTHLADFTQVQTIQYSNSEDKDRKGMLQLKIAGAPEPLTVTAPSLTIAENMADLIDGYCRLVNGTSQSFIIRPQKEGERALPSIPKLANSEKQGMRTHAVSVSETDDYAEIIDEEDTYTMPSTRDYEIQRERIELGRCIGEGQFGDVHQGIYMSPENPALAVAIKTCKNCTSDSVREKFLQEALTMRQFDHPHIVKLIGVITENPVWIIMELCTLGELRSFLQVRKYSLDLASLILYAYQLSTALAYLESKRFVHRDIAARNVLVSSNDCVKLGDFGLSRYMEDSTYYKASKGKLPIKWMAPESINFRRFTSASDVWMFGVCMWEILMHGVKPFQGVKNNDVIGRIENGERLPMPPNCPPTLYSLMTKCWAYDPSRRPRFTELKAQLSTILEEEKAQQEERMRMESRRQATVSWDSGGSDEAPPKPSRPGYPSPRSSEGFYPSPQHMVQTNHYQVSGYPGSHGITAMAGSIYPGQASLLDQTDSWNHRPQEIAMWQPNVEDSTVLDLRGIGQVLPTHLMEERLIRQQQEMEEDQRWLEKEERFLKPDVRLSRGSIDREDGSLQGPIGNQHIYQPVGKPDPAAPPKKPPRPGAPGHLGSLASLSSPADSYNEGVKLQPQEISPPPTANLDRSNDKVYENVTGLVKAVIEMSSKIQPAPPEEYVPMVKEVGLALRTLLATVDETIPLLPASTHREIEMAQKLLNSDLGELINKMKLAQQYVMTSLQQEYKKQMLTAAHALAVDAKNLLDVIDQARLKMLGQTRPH

SMILES: CS(=O)(=O)c1cccc(CNc2nc(Nc3ccc4c(c3)CCC(=O)N4)ncc2C(F)(F)F)c1 [PF-573228]
β3 integrin surface levels ([1]; B-rafV600E melanoma cells): induced | β1 integrin surface levels ([2]; B-raf wild-type melanoma cells): not | β1 integrin surface levels ([2]; B-rafV600E melanoma cells): induced | ERK activity [3]: induce

FAK tyrosine (Y) 397 auto-phosphorylation [4]: increased
SMILES: CC(C)(C)c1nc(-c2cccc(NS(=O)(=O)c3c(F)cccc3F)c2F)c(-c2ccnc(N)n2)s1 [Dabrafenib]
integrin levels (cell surface β3) ([1]; NHM): not | integrin levels (cell surface β3) ([1]; most melanoma cells): reduced | integrin levels (cell surface β1) ([2]; NHM): not | integrin levels (cell surface β1) ([2]; most melanoma cells): reduced | ERK activity [3]: blockage

Source: patent publication US11851710B2, “Methods and materials for identifying metastatic malignant skin lesions and treating skin cancer” (Mayo Foundation for Medical Education and Research, priority 2014, dated 2023)
